Source: patent US6468505B1, “Technique to monitor drug delivery noninvasively in vivo” (Philipp Lang, priority 1997, dated 2002)

How the values were obtained:
[1] = unencapsulated, free chelate; cited from earlier work
[2] = NMR relaxometry of GdDTPA-BMA containing liposomes in vitro (inversion recovery T1); type: physicochemical; conditions: GdDTPA-BMA in solution of solubilized liposome (0.1% C12E8), 1 mM Gd
Method: NMR relaxometry and magnetic resonance (MR) imaging were performed using a 2.0 Tesla small bore magnet (Bruker Omega 2.0T System, Bruker Instruments, Inc., Fremont, Calif.) equipped with actively shielded gradients (Accustar™ S-150, Bruker Instruments, Inc., Fremont, Calif.) capable of delivering field gradients up to 20 G/cm along each axis (X, Y and Z).
T1 relaxation rates of various liposome suspensions with a mean diameter of 110 nm were determined by standard inversion recovery measurment. The content of GdDTPA-BMA in liposome suspensions was estimated from NMR relaxometry. An inversion recovery NMR spectroscopy pulse sequence was performed in which a nonselective composite inversion pulse (90x-180y-90x) was applied, followed by a gradient spoiler pulse to eliminate residual coherent in-plane magnetization. After a variable delay time (TI), z-magnetization was sampled by a nonselective 90° radiofrequency pulse and the signal was recorded. The inversion recovery signal profile was obtained from at least forty such measurements in which the TI delay was incremented from 20 ms to a value that was at least 3-fold greater than the T1.
Mz(TI)/M∞=1−k exp(TI/T1) Eq. 1,
in which Mz(TI) is the signal intensity measured at a particular value of TI, M∞ is the fully relaxed signal intensity, and k has the value of 2.0 if the inversion pulse is exactly 180°. […]

Which biologic half-life [1] does the source give for `O=C([O-])CN(CCN(CC(=O)[O-])CC(=O)O)CCN(CC(=O)[O-])CC(=O)O.[Gd+3]` [Gd-DTPA, gadolinium-diethylene triamine pentaacetic acid] here?
The biologic half-life was “approximately 30 min”.

Which “Relaxivity=ΔR1/[Gd]” value [2] does the source give for `CNC(=O)CN(CCN(CCN(CC(=O)[O-])CC(=O)NC)CC(=O)[O-])CC(=O)[O-].[Gd+3]` [Gd-DTPA-BMA, Gadolinium-diethylene-triamine-pentaacetic-acid-bis-methylamide] here?
The value was 4.07 s⁻¹ mM⁻¹.

What about the biologic half-life [1] of the same compound?
Its biologic half-life is “approximately 30 min”.
